# According to the kinase profiling compilation of Christmann-Franck et al. (2016):
# Columns and labels:
# Assay in all cases: KINOMEscan competition binding
# Details in all cases: compound 10.0 µM
# LIMK1 (human) = LIMK1 (human) (UniProt P53667)
# STK38L (human) = STK38L (human) (UniProt Q9Y2H1)
# CDK17 (human) = CDK17 (human) (UniProt Q00537)
# NEK5 (human) = NEK5 (human) (UniProt Q6P3R8)
# MAP4K4 (human) = MAP4K4 (human) (UniProt O95819)
# NTRK3 (human) = NTRK3 (human) (UniProt Q16288)
# MLTK (human) = MLTK (human) (UniProt Q9NYL2)
# CAMKK1 (human) = CAMKK1 (human) (UniProt Q8N5S9)
# RPS6KA6 KD1 (human) = RPS6KA6 KD1 (human) (UniProt Q9UK32)
# [1] = system: ABL1 (human), P00519 [M351T]
# [2] = system: KIT (human), P10721 [D816V]
# CDK3 (human) = CDK3 (human) (UniProt Q00526)
# PKN2 (human) = PKN2 (human) (UniProt Q16513)
# PIP5K1A (human) = PIP5K1A (human) (UniProt Q99755)
# PTK2B (human) = PTK2B (human) (UniProt Q14289)
# EPHA8 (human) = EPHA8 (human) (UniProt P29322)
# [3] = system: EIF2AK4 KD2 (human), Q9P2K8 [S808G]
# CDK8 (human) = CDK8 (human) (UniProt P49336)
# EPHA1 (human) = EPHA1 (human) (UniProt P21709)
# [4] = target: TYK2 JH1 catalytic (human) (UniProt P29597)
# CDC42BPG (human) = CDC42BPG (human) (UniProt Q6DT37)
# FGFR3 (human) = FGFR3 (human) (UniProt P22607)
# STK10 (human) = STK10 (human) (UniProt O94804)
# MYO3B (human) = MYO3B (human) (UniProt Q8WXR4)
# TNK1 (human) = TNK1 (human) (UniProt Q13470)
# FGFR2 (human) = FGFR2 (human) (UniProt P21802)
# STK4 (human) = STK4 (human) (UniProt Q13043)
# STK16 (human) = STK16 (human) (UniProt O75716)
# PRKCE (human) = PRKCE (human) (UniProt Q02156)
# PRKAA2 (human) = PRKAA2 (human) (UniProt P54646)
# PRKG2 (human) = PRKG2 (human) (UniProt Q13237)
# MAP4K2 (human) = MAP4K2 (human) (UniProt Q12851)
# PKN1 (human) = PKN1 (human) (UniProt Q16512)
# FGR (human) = FGR (human) (UniProt P09769)
# GAK (human) = GAK (human) (UniProt O14976)
# RPS6KA4 KD2 (human) = RPS6KA4 KD2 (human) (UniProt O75676)
# MAPK10 (human) = MAPK10 (human) (UniProt P53779)
# STK24 (human) = STK24 (human) (UniProt Q9Y6E0)
# CDK11B (human) = CDK11B (human) (UniProt P21127)
# DCLK3 (human) = DCLK3 (human) (UniProt Q9C098)
# Sequence of CDK17 (human) (Q00537 whole entry, looked up): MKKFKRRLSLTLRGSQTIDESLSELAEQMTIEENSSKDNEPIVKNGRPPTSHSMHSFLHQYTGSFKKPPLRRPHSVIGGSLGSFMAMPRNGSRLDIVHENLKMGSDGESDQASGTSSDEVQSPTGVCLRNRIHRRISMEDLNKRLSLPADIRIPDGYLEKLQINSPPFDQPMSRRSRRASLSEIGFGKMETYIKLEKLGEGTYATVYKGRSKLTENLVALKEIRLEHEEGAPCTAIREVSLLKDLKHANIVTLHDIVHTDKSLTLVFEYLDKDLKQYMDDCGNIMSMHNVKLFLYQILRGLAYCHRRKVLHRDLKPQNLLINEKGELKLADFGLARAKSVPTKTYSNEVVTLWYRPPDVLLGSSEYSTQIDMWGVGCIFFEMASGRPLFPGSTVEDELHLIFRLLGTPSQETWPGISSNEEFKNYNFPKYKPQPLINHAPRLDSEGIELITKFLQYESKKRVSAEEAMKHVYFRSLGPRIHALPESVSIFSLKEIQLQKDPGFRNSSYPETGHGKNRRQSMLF
# Sequence of FGFR2 (human) (P21802 whole entry, looked up): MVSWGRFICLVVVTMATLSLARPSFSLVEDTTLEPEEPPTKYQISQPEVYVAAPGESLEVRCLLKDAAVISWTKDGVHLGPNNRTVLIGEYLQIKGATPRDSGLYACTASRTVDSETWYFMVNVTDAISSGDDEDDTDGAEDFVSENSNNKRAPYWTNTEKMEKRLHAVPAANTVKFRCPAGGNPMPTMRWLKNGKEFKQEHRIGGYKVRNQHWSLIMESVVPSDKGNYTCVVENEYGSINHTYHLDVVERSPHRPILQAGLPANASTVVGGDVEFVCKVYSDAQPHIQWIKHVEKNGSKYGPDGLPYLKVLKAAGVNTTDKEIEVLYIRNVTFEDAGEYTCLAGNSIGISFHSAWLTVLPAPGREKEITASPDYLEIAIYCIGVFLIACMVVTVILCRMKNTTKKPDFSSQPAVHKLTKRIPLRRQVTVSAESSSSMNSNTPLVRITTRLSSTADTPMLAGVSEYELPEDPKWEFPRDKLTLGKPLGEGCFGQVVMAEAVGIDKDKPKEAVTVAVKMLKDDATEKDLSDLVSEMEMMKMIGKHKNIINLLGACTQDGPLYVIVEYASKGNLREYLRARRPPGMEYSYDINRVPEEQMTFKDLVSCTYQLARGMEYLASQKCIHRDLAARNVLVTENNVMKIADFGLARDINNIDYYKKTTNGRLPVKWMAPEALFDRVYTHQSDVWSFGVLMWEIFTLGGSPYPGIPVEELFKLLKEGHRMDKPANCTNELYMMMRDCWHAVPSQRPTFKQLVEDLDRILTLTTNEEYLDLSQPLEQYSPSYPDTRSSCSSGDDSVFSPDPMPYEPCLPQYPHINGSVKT
# Sequence of CDK3 (human) (Q00526 whole entry, looked up): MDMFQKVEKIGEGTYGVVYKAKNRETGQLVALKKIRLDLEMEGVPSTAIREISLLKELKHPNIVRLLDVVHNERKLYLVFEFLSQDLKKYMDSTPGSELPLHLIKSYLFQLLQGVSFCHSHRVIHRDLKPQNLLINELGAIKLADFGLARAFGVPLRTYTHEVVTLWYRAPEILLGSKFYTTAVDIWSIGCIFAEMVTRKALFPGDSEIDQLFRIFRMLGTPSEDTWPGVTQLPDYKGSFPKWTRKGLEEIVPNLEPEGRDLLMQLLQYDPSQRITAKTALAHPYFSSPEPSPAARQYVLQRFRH
# Sequence of KIT (human), P10721 [D816V] (P10721 whole entry D816V, looked up): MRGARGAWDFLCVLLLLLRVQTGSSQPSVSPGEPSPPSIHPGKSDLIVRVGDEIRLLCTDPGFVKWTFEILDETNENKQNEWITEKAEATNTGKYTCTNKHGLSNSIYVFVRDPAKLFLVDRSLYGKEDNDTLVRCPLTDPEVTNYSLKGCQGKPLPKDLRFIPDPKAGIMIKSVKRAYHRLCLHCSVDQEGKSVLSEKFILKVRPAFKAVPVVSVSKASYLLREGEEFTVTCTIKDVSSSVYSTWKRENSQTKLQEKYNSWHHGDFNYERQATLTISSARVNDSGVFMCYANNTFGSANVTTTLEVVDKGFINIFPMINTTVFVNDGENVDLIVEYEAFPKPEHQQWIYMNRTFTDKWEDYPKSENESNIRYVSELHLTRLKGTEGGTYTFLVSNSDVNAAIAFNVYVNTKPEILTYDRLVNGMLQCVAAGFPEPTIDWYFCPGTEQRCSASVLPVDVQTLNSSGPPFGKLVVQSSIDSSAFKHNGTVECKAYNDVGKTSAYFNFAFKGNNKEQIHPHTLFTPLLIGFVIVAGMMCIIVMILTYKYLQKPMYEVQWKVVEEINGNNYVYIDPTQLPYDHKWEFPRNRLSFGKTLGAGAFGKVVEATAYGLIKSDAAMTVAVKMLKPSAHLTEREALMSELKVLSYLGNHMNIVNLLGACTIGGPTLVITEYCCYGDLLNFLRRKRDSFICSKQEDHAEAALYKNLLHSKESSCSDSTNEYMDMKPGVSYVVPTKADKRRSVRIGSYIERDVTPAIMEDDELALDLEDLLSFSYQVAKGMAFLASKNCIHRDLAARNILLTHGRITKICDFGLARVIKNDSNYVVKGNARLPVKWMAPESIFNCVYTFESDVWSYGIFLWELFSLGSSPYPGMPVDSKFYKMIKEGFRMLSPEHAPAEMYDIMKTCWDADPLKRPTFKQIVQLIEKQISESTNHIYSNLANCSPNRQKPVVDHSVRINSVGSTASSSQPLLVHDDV
# Sequence of MAP4K4 (human) (O95819 whole entry, looked up): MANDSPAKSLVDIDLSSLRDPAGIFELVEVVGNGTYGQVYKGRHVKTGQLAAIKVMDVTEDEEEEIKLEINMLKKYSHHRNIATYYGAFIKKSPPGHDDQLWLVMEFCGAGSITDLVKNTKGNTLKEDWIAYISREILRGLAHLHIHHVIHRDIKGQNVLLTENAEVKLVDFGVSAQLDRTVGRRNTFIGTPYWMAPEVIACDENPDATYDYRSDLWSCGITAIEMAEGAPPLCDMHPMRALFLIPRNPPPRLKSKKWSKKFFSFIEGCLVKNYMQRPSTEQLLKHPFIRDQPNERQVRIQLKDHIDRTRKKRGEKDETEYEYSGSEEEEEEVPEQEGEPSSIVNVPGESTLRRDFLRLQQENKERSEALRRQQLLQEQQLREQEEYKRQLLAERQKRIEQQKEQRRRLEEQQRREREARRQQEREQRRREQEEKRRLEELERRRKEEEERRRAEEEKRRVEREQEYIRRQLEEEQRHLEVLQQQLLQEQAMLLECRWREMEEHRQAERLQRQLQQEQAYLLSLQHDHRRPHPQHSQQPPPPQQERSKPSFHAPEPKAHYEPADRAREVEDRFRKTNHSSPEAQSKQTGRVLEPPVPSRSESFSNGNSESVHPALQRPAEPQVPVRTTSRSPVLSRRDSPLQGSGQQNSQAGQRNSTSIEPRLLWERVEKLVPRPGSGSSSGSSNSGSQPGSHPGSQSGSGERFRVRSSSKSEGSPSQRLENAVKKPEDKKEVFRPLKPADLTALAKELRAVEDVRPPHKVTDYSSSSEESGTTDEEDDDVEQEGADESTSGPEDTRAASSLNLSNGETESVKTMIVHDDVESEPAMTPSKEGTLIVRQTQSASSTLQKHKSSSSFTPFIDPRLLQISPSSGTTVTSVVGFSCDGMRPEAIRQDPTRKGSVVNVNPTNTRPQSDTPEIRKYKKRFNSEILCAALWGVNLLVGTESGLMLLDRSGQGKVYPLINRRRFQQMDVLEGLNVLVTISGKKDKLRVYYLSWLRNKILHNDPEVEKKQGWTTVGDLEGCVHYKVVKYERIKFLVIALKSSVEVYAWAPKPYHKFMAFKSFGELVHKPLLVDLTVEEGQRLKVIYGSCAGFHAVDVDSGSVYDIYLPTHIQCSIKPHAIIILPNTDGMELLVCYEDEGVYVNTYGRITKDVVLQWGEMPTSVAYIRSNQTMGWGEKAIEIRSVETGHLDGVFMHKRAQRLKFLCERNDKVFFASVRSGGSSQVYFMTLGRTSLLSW
# Sequence of MAPK10 (human) (P53779 whole entry, looked up): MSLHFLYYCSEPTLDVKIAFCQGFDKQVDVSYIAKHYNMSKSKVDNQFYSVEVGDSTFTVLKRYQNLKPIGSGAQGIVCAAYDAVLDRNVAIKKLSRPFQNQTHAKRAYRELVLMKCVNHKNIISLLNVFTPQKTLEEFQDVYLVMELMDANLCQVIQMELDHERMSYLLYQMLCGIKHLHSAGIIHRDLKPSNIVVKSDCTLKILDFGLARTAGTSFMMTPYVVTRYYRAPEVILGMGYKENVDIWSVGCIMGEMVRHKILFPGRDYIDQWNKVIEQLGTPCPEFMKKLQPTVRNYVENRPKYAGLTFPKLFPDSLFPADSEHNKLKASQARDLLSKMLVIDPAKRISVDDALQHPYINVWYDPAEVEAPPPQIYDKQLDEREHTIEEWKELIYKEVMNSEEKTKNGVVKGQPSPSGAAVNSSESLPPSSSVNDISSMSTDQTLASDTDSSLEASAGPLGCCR
# Sequence of PRKAA2 (human) (P54646 whole entry, looked up): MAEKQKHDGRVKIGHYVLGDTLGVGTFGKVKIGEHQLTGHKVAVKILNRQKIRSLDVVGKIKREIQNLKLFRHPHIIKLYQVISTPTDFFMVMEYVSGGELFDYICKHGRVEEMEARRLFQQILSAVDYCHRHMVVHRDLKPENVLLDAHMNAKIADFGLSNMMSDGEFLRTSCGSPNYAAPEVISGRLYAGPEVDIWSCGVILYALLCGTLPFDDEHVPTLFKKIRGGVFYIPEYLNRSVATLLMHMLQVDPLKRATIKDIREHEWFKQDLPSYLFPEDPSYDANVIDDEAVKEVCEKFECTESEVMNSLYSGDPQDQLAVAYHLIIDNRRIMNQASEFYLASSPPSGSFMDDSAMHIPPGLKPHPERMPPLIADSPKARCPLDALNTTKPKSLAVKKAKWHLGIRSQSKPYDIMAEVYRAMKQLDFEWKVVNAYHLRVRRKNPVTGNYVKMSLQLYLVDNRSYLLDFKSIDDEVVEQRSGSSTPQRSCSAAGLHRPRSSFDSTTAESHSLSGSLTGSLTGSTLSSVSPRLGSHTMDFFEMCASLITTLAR
structure (smiles),measurement,setting,value
COc1cc(C(=O)NC2CCN(C)CC2)ccc1Nc1ncc2c(n1)N(C1CCCC1)CCC(=O)N2C(C)C,"kinase still bound, per cent of control",LIMK1 (human),100%
same,"kinase still bound, per cent of control",STK38L (human),100%
same,"kinase still bound, per cent of control",CDK17 (human),100%
same,"kinase still bound, per cent of control",NEK5 (human),100%
same,"kinase still bound, per cent of control",MAP4K4 (human),100%
same,"kinase still bound, per cent of control",NTRK3 (human),100%
same,"kinase still bound, per cent of control",MLTK (human),100%
same,"kinase still bound, per cent of control",CAMKK1 (human),100%
same,"kinase still bound, per cent of control",RPS6KA6 KD1 (human),100%
same,"kinase still bound, per cent of control",[1],100%
same,"kinase still bound, per cent of control",[2],100%
same,"kinase still bound, per cent of control",CDK3 (human),100%
same,"kinase still bound, per cent of control",PKN2 (human),100%
same,"kinase still bound, per cent of control",PIP5K1A (human),6.4%
same,"kinase still bound, per cent of control",PTK2B (human),100%
same,"kinase still bound, per cent of control",EPHA8 (human),100%
same,"kinase still bound, per cent of control",[3],100%
same,"kinase still bound, per cent of control",CDK8 (human),100%
same,"kinase still bound, per cent of control",EPHA1 (human),100%
same,"kinase still bound, per cent of control",[4],100%
same,"kinase still bound, per cent of control",CDC42BPG (human),100%
same,"kinase still bound, per cent of control",FGFR3 (human),100%
same,"kinase still bound, per cent of control",STK10 (human),100%
same,"kinase still bound, per cent of control",MYO3B (human),100%
same,"kinase still bound, per cent of control",TNK1 (human),100%
same,"kinase still bound, per cent of control",FGFR2 (human),100%
same,"kinase still bound, per cent of control",STK4 (human),100%
same,"kinase still bound, per cent of control",STK16 (human),100%
same,"kinase still bound, per cent of control",PRKCE (human),100%
same,"kinase still bound, per cent of control",PRKAA2 (human),100%
same,"kinase still bound, per cent of control",PRKG2 (human),100%
same,"kinase still bound, per cent of control",MAP4K2 (human),100%
same,"kinase still bound, per cent of control",PKN1 (human),100%
same,"kinase still bound, per cent of control",FGR (human),100%
same,"kinase still bound, per cent of control",GAK (human),100%
same,"kinase still bound, per cent of control",RPS6KA4 KD2 (human),100%
same,"kinase still bound, per cent of control",MAPK10 (human),100%
same,"kinase still bound, per cent of control",STK24 (human),100%
same,"kinase still bound, per cent of control",CDK11B (human),100%
same,"kinase still bound, per cent of control",DCLK3 (human),100%
